This is an account of results in patent US10865208B2, “ATG7 inhibitors and the uses thereof” (Millennium Pharmaceuticals, Inc., priority 2016, dated 2020).

The target of the assay is recombinant human His-ATG7 enzyme (Homo sapiens (Human), UniProt O95352). Description: ATG7 Enzyme Assay (HTRF/FRET, ATG3-GST and Flag-Gabarap). It counts as biochemical. As to conditions: for inhibition at 0.123 µM: Concentration 0.123 μM; for inhibition at 0.123 µM / inhibition at 0.111 µM / inhibition at 0.069 µM: read-out: Percent Inhibition; for inhibition at 0.111 µM: Concentration 0.111 μM; for inhibition at 0.069 µM: Concentration 0.069 μM. The method, then: Example 97: ATG7 Enzyme Assay
The total volume of the ATG7 enzymatic assay is 50 μL and contains 50 mM HEPES Hemisodium (pH 7.5), 0.05% BSA, 0.01% Tween-20, 25 mM NaCl, 5 mM MgCl2, 10 μM ATP, 250 μM GSH, 5 nM ATG3-GST, 5 nM Flag-Gabarap, 100 μM TCEP and 0.15 nM recombinant human His-ATG7 enzyme. The enzymatic reaction mixture, with and without inhibitor, was incubated at 24° C. for 105 min in a 384-well plate before termination with […] of Stop/Detection buffer (0.1M HEPES Hemisodium pH 7.5, 0.05% Tween20, 20 mM EDTA, 410 mM KF, 0.53 nM Europium-Cryptate labeled monoclonal anti-Flag M2 Antibody (CisBio International) and 8.125 μg/ml PHYCOLINK goat anti-GST allophycocyanin (XL-APC) antibody (Prozyme)). After incubation for 2 hours at 24° C., quantification of FRET is performed on the Pherostar™ (BMG Labtech). Percentage inhibition values at a single concentration or enzyme inhibition (IC50) values are determined from those curves. One skilled in the art will appreciate that the values generated either as percentage inhibition at a single concentration or IC50 values are subject to experimental variation.
In general terms: TR-FRET usually uses a lanthanide donor and a delayed reading to cut background.

Each structure is given as a SMILES string. Bounds are passed on as bounds.

Sequence of recombinant human His-ATG7 enzyme (O95352 whole entry): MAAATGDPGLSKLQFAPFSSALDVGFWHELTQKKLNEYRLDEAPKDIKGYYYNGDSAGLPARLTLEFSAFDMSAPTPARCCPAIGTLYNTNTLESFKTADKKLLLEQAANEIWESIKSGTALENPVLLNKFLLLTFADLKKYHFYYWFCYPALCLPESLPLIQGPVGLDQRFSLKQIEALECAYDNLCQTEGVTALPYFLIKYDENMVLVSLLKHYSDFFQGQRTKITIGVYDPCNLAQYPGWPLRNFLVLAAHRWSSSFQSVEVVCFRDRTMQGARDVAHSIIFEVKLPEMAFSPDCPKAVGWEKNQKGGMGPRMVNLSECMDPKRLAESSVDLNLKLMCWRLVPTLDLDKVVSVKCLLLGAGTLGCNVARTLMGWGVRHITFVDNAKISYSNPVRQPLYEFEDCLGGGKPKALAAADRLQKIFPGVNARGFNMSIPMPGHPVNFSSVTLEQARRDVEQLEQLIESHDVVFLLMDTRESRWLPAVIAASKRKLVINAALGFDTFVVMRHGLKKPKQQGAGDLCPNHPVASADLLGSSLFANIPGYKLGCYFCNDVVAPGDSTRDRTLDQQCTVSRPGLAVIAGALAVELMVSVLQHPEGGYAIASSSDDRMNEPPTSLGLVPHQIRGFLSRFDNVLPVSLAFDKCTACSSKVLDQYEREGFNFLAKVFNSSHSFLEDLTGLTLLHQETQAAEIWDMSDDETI

For orientation: IC50 means the midpoint of a concentration-inhibition curve. The term inhibition denotes how much of the control response was suppressed. With `COCCSc1nn([C@@H]2O[C@H](COS(N)(=O)=O)[C@@H](O)[C@H]2O)c2ncnc(N)c12` [Compound I-35, [(2R,3S,4R,5R)-5-{4-amino-3-[(2-methoxyethyl)sulfanyl]-1H-pyrazolo[3,4-d]pyrimidin-1-yl}-3,4-dihydroxytetrahydrofuran-2-yl]methyl sulfamate], the half-maximal inhibitory concentration (IC50) lay within 20 to 50 nM and the inhibition at 0.123 µM was 72%.
`Nc1ncnc2c1c(SC1CCCC1)nn2[C@@H]1O[C@H](COS(N)(=O)=O)[C@@H](O)[C@H]1O` [Compound I-62, {(2R,3S,4R,5R)-5-[4-amino-3-(cyclopentylsulfanyl)-1H-pyrazolo[3,4-d]pyrimidin-1-yl]-3,4-dihydroxytetrahydrofuran-2-yl}methyl sulfamate]: the IC50 was less than 20 nM and the inhibition at 0.123 µM was found to be 89%.
With `Cc1csc(Sc2nn([C@H]3C[C@H](O)[C@@H](COS(N)(=O)=O)O3)c3ncnc(N)c23)n1` [Compound I-208, [(2R,3S,5R)-5-{4-amino-3-[(4-methyl-1,3-thiazol-2-yl)sulfanyl]-1H-pyrazolo[3,4-d]pyrimidin-1-yl}-3-hydroxytetrahydrofuran-2-yl]methyl sulfamate], the 50% inhibitory concentration (IC50) is 100 to 500 nM and the inhibition at 0.111 µM was determined as 44%.
The corresponding values for `CC(C)(C)c1ccc(Sc2nn([C@H]3C[C@H](O)[C@@H](COS(N)(=O)=O)O3)c3ncnc(N)c23)cc1` [Compound I-163, [(2R,3S,5R)-5-{4-amino-3-[(4-tert-butylphenyl)sulfanyl]-1H-pyrazolo[3,4-d]pyrimidin-1-yl}-3-hydroxytetrahydrofuran-2-yl]methyl sulfamate] are 50 to 100 nM and 58%.
The corresponding values for `Nc1ncnc2c1c(Sc1cn[nH]c1)nn2[C@@H]1O[C@H](COS(N)(=O)=O)[C@@H](O)[C@H]1O` [Compound I-36, {(2R,3S,4R,5R)-5-[4-amino-3-(1H-pyrazol-4-ylsulfanyl)-1H-pyrazolo[3,4-d]pyrimidin-1-yl]-3,4-dihydroxytetrahydrofuran-2-yl}methyl sulfamate] are less than 20 nM and 88%.
On to `Nc1ncnc2c1c(-c1ccccc1)nn2[C@@H]1O[C@H](COS(N)(=O)=O)[C@@H](O)[C@H]1O` [Compound I-49, [(2R,3S,4R,5R)-5-(4-amino-3-phenyl-1H-pyrazolo[3,4-d]pyrimidin-1-yl)-3,4-dihydroxytetrahydrofuran-2-yl]methyl Sulfamate], for which the IC50 is more than 500 nM and the inhibition at 0.069 µM worked out at 7%.
`CC(C)Oc1ccc(Sc2nn([C@H]3C[C@H](O)[C@@H](COS(N)(=O)=O)O3)c3ncnc(N)c23)cc1` [Compound I-184, [(2R,3S,5R)-5-{4-amino-3-[(4-isopropoxyphenyl)sulfanyl]-1H-pyrazolo[3,4-d]pyrimidin-1-yl}-3-hydroxytetrahydrofuran-2-yl]methyl sulfamate]: the IC50 lay within 50 to 100 nM and the inhibition at 0.111 µM worked out at 64%.
The matching figures for `Nc1ncnc2c1c(Sc1ccc3c(c1)CCO3)nn2[C@H]1C[C@H](O)[C@@H](COS(N)(=O)=O)O1` [Compound I-186, {(2R,3S,5R)-5-[4-amino-3-(2,3-dihydro-1-benzofuran-5-ylsulfanyl)-1H-pyrazolo[3,4-d]pyrimidin-1-yl]-3-hydroxytetrahydrofuran-2-yl}methyl sulfamate]: 20 to 50 nM and 74%.
The matching figures for `CC(C#N)Sc1nn([C@@H]2O[C@H](COS(N)(=O)=O)[C@@H](O)[C@@H]2F)c2ncnc(N)c12` (mixture of isomers) [Compound I-149, [(2R,3R,4S,5R)-5-(4-amino-3-{[(1R)-1-cyanoethyl]sulfanyl}-1H-pyrazolo[3,4-d]pyrimidin-1-yl)-4-fluoro-3-hydroxytetrahydrofuran-2-yl]methyl sulfamate and [(2R,3R,4S,5R)-5-(4-amino-3-{[(1S)-1-cyanoethyl]sulfanyl}-1H-pyrazolo[3,4-d]pyrimidin-1-yl)-4-fluoro-3-hydroxytetrahydrofuran-2-yl]methyl sulfamate]: 20 to 50 nM and 82%.
For `Nc1ncnc2c1c(Sc1ccc([N+](=O)[O-])cn1)nn2[C@@H]1O[C@H](COS(N)(=O)=O)[C@@H](O)[C@@H]1F` [Compound I-111, [(2R,3R,4S,5R)-5-{4-amino-3-[(5-nitropyridin-2-yl)sulfanyl]-1H-pyrazolo[3,4-d]pyrimidin-1-yl}-4-fluoro-3-hydroxytetrahydrofuran-2-yl]methyl sulfamate], the IC50 was in the range of 20 to 50 nM and the inhibition at 0.111 µM came out at 73%.
In the case of `NCC#Cc1nn([C@@H]2O[C@H](COS(N)(=O)=O)[C@@H](O)[C@H]2O)c2ncnc(N)c12` [Compound I-17, {(2R,3S,4R,5R)-5-[4-amino-3-(3-aminoprop-1-yn-1-yl)-1H-pyrazolo[3,4-d]pyrimidin-1-yl]-3,4-dihydroxytetrahydrofuran-2-yl}methyl Sulfamate], the 50% inhibitory concentration (IC50) is more than 500 nM and the inhibition at 0.069 µM was determined as 10%.
In the case of `Nc1ncnc2c1c(Sc1cccc3ccccc13)nn2[C@@H]1O[C@H](COS(N)(=O)=O)[C@@H](O)[C@H]1O` [Compound I-84, {(2R,3S,4R,5R)-5-[4-amino-3-(1-naphthylsulfanyl)-1H-pyrazolo[3,4-d]pyrimidin-1-yl]-3,4-dihydroxytetrahydrofuran-2-yl}methyl sulfamate], the half-maximal inhibitory concentration (IC50) was in the range of 50 to 100 nM and the inhibition at 0.123 µM was determined as 62%.
For the compound `Nc1ncnc2c1c(Sc1ccccc1F)nn2[C@H]1C[C@H](O)[C@@H](COS(N)(=O)=O)O1` [Compound I-182, [(2R,3S,5R)-5-{4-amino-3-[(2-fluorophenyl)sulfanyl]-1H-pyrazolo[3,4-d]pyrimidin-1-yl}-3-hydroxytetrahydrofuran-2-yl]methyl sulfamate], the IC50 was in the range of 50 to 100 nM and the inhibition at 0.111 µM was found to be 66%.
The matching figures for `Cc1ccc(Sc2nn([C@@H]3O[C@H](COS(N)(=O)=O)[C@@H](O)[C@@H]3F)c3ncnc(N)c23)nc1` [Compound I-152, [(2R,3R,4S,5R)-5-{4-amino-3-[(5-methylpyridin-2-yl)sulfanyl]-1H-pyrazolo[3,4-d]pyrimidin-1-yl}-4-fluoro-3-hydroxytetrahydrofuran-2-yl]methyl sulfamate]: less than 20 nM and 88%.
For the compound `Cc1cc(Sc2nn([C@@H]3O[C@H](COS(N)(=O)=O)[C@@H](O)[C@@H]3F)c3ncnc(N)c23)c(C)o1` [Compound I-110, [(2R,3R,4S,5R)-5-{4-amino-3-[(2,5-dimethyl-3-furyl)sulfanyl]-1H-pyrazolo[3,4-d]pyrimidin-1-yl}-4-fluoro-3-hydroxytetrahydrofuran-2-yl]methyl sulfamate], the IC50 is 50 to 100 nM and the inhibition at 0.111 µM stood at 56%.
Turning to `Nc1ncnc2c1c(Sc1ccccn1)nn2[C@H]1C[C@H](O)[C@@H](COS(N)(=O)=O)O1` [Compound I-194, {(2R,3S,5R)-5-[4-amino-3-(pyridin-2-ylsulfanyl)-1H-pyrazolo[3,4-d]pyrimidin-1-yl]-3-hydroxytetrahydrofuran-2-yl}methyl sulfamate], the IC50 lay within 20 to 50 nM and the inhibition at 0.111 µM amounted to 79%.
